This passage reports GI50 and Kd results from US20230242544A1, “QUINAZOLINE COMPOUNDS, PREPARATION METHODS AND USES THEREOF” (INVENTISBIO CO., LTD., priority 2020, published 2023).

Structures are written as SMILES. pKd: −log10 of the molar value.

In experiment [1] the target is Ba/F3_KRAS^G12D cells (Homo sapiens, UniProt P01116, G12D, cells depend on it). Kind of experiment: Ba/F3 KRAS G12D cell proliferation assay (CellTiter-Glo). Format: cell-based. The settings on record: treated for 3 days, cell-titer Glo, cell growth inhibition, read-out: BaF3_KRAS^G12D IC50. The procedure:
Ba/F3_KRAS^G12D cells (KYinno, China) were generated by transducing Ba/F3 parental cells with the recombinant KRAS^G12D lentivirus and followed by 1 ug/mL of puromycin selection and IL3 depletion. […] Cells were seeded at a density of 5×10^3 per well into 96-well plate and incubated overnight. Serial diluted compounds were added to each well. Cells were treated with the compounds for 3 days, after which cell-titer Glo reagent (Promega #G7572) was used to assess cell proliferation. The luminescence signal was then collected on Tecan Spark plate reader. […] Cell growth inhibition of IC50 is calculated with the equation of Y=Bottom+(Top−Bottom)/(1+10^((Log IC50−X)*Hill Slope))
On the technique in general: In ATP-based viability assays light output follows the ATP content of the culture.

Experiment [2] deals with recombinant human KRAS^G12D protein (Homo sapiens, UniProt P01116, G12D). Kind of experiment: Temperature-dependent Fluorescence (TdF) KRAS G12D protein binding assay. As to conditions: 6 μM KRAS^G12D protein, 10 μM compound, Sypro Orange; Kd calculated from the fluorescent shift. The protocol: The Temperature-dependent Fluorescence (TdF) assay was used to analyze binding affinity of compound to recombinant human KRAS^G12D protein. The TdF assay was conducted in the 96-well-based real-time fluorescence plate reader (ABI 7500 or Roche LightCycler 480). Fluorescent dye Sypro Orange (Sigma) was used to monitor the protein folding-unfolding transition. Protein-compound binding was gauged by the shift in the unfolding transition temperature (ΔTm) acquired with and without compound. Each reaction sample consists of 6 μM KRAS^G12D Protein, 10 μM compound, and Sypro Orange dye (in 1% DMSO) in 20 μL reaction buffer (25 mM HEPES pH 7.5, 150 mM NaCl, 10 mM MgCl2). […] Binding affinity (Kd value) was calculated based on the degree of fluorescent shift of the protein with and without compound.
Chain of recombinant human KRAS^G12D protein (P01116 1-188 isoform P01116-2 G12D): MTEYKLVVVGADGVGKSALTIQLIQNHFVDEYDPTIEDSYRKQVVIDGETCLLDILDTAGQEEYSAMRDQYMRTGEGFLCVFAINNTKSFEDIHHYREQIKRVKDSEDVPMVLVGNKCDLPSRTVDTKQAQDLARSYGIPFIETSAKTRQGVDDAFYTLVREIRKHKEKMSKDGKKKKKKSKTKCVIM

Chain of Ba/F3_KRAS^G12D cells (P01116 whole entry G12D): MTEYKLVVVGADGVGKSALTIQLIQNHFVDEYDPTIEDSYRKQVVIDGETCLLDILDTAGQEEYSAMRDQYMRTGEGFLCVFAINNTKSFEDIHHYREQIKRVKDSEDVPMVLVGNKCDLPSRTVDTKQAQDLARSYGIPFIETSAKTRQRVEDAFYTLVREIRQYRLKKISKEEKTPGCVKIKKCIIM

As to `CCc1cccc2cc(O)cc(-c3c(Cl)cc4c(N5CC6CCC(C5)N6)nc(OC[C@@]56CCCN5C[C@H](F)C6)nc4c3F)c12` (racemic) [Compound 77], the GI50 in experiment [1] was under 500 nM. The pKd (commonly the negative decadic logarithm of the Kd, by convention in mol/L) in experiment [2] was over 6.30.

On to `Oc1cc(-c2c(Cl)cc3c(N4CC5CCC(C4)N5)nc(OC[C@]45CCCN4C[C@@H](F)C5)nc3c2F)c2c(Cl)cccc2c1` (single isomer, unassigned) [Compound 101], for which the GI50 in experiment [1] was under 500 nM. Besides, the pKd in experiment [2] was over 6.30.

As for `Oc1cc(-c2c(Cl)cc3c(N4CC5CCC(C4)N5)nc(OC[C@]45CCCN4C[C@@H](F)C5)nc3c2F)c2c(Cl)cccc2c1` (single isomer, unassigned) [Compound 102], in experiment [1], the GI50 was 500 to 5000 nM. For the same molecule, the pKd in experiment [2] is under 5.30.

With `Oc1cc(-c2c(Cl)cc3c(N4CC5CCC(C4)N5)nc(OC[C@@]45CCCN4C[C@H](F)C5)nc3c2F)c2c(Cl)cccc2c1` (single isomer, unassigned) [Compound 103], the GI50 in experiment [1] was under 500 nM. Besides, the pKd in experiment [2] is over 6.30.

With `Oc1cc(-c2c(Cl)cc3c(N4CC5CCC(C4)N5)nc(OC[C@@]45CCCN4C[C@H](F)C5)nc3c2F)c2c(Cl)cccc2c1` (single isomer, unassigned) [Compound 104], the GI50 in experiment [1] is 500 to 5000 nM. For the same molecule, the pKd in experiment [2] is under 5.30.

As for `Oc1cc(-c2c(Cl)cc3c(N4CC5CCC(C4)N5)nc(OC[C@]45CCCN4C[C@@H](F)C5)nc3c2F)c2ccccc2c1` (single isomer, unassigned) [Compound 105], in experiment [1], the GI50 lay within 500 to 5000 nM. Also, in experiment [2], the pKd is under 5.30.

Regarding `Oc1cc(-c2c(Cl)cc3c(N4CC5CCC(C4)N5)nc(OC[C@]45CCCN4C[C@@H](F)C5)nc3c2F)c2ccccc2c1` (single isomer, unassigned) [Compound 106], in experiment [1], the GI50 is under 500 nM. The pKd in experiment [2] is over 6.30.

Regarding `Oc1cc(-c2c(Cl)cc3c(N4CC5CCC(C4)N5)nc(OC[C@@]45CCCN4C[C@H](F)C5)nc3c2F)c2ccccc2c1` (single isomer, unassigned) [Compound 107], the GI50 in experiment [1] is under 500 nM. For the same molecule, the pKd in experiment [2] is over 6.30.

For the molecule `Oc1cc(-c2c(Cl)cc3c(N4CC5CCC(C4)N5)nc(OC[C@@]45CCCN4C[C@H](F)C5)nc3c2F)c2ccccc2c1` (single isomer, unassigned) [Compound 108], in experiment [1], the GI50 is 500 to 5000 nM. Also, the pKd in experiment [2] was under 5.30.

For the molecule `Cc1cccc2cc(O)cc(-c3c(Cl)cc4c(N5CC6CCC(C5)N6)nc(OC[C@@]56CCCN5C[C@H](F)C6)nc4c3F)c12` (single isomer, unassigned) [Compound 117], in experiment [1], the GI50 was under 500 nM. In addition, the pKd in experiment [2] was over 6.30.

As to `Cc1cccc2cc(O)cc(-c3c(Cl)cc4c(N5CC6CCC(C5)N6)nc(OC[C@@]56CCCN5C[C@H](F)C6)nc4c3F)c12` (single isomer, unassigned) [Compound 118], in experiment [1], the GI50 is under 500 nM. Further, the pKd in experiment [2] is over 6.30.

In the case of `N#Cc1cc2c(N3CC4CCC(C3)N4)nc(OC[C@@]34CCCN3C[C@H](F)C4)nc2c(F)c1-c1cc(O)cc2cccc(Cl)c12` (single isomer, unassigned) [Compound 119], the GI50 in experiment [1] fell in the range of 500 to 5000 nM. Further, the pKd in experiment [2] was under 5.30.

For the molecule `CCc1c(F)ccc2cc(O)cc(-c3c(Cl)cc4c(N5CC6CCC(C5)N6)nc(OC[C@@]56CCCN5C[C@H](F)C6)nc4c3F)c12` (single isomer, unassigned) [Compound 147], in experiment [1], the GI50 is under 500 nM.

As to `CCc1c(F)ccc2cc(O)cc(-c3c(Cl)cc4c(N5CC6CCC(C5)N6)nc(OC[C@@]56CCCN5C[C@H](F)C6)nc4c3F)c12` (single isomer, unassigned) [Compound 148], the GI50 in experiment [1] is under 500 nM.

For the molecule `C#Cc1c(F)ccc2cc(O)cc(-c3c(Cl)cc4c(N5CC6CCC(C5)N6)nc(OC[C@@]56CCCN5C[C@H](F)C6)nc4c3F)c12` (single isomer, unassigned) [Compound 155], the GI50 in experiment [1] was under 500 nM.

As for `C#Cc1c(F)ccc2cc(O)cc(-c3c(F)cc4c(N5CC6CCC(C5)N6)nc(OC[C@@]56CCCN5C[C@H](F)C6)nc4c3F)c12` (single isomer, unassigned) [Compound 165], the GI50 in experiment [1] was under 500 nM.

Consider `CN(C)CCCOc1nc(N2CC3CCC(C2)N3)c2cc(Cl)c(-c3c(N)cccc3F)c(F)c2n1` [Compound 9], for which the GI50 in experiment [1] is over 5000 nM.

Regarding `CN1CCC[C@H]1COc1nc(NC2CNC2)c2cc(Cl)c(-c3cc(O)cc4cccc(Cl)c34)c(F)c2n1` [Compound 15], the pKd in experiment [2] is under 5.30.

Take `CN1CC(F)(F)CC1COc1nc(N2CC3CCC(C2)N3)c2cc(Cl)c(-c3cc(O)cc4ccccc34)c(F)c2n1` (stereo not shown) [Compound 34]: the GI50 in experiment [1] is 500 to 5000 nM.

In the case of `CN1CCO[C@@H](COc2nc(N3CC4CCC(C3)N4)c3cc(Cl)c(-c4cc(O)cc5ccccc45)c(F)c3n2)C1` [Compound 37], in experiment [1], the GI50 lay within 500 to 5000 nM.

For `CN1CCC(Oc2nc(N3CC4CCC(C3)N4)c3cc(Cl)c(-c4cc(O)cc5ccccc45)c(F)c3n2)CC1` [Compound 38], the GI50 in experiment [1] lay in the range of 500 to 5000 nM.

As to `Oc1cccc(F)c1-c1c(Cl)cc2c(N3CC4CCC(C3)N4)nc(OCC34CCCN3CCC4)nc2c1F` [Compound 63], the pKd in experiment [2] was 5.30 to 6.30.

With `Oc1cc(-c2c(Cl)cc3c(N4CC5CCC(C4)N5)nc(OC[C@@]45CCCN4C[C@H](F)C5)nc3c2F)c2ccccc2c1` [Compound 68], in experiment [2], the pKd is over 6.30.

On to `Oc1cc(-c2c(Cl)cc3c(N4CC5CCC(C4)N5)nc(OCC45CCCN4CCC5)nc3c2F)c2c(Cl)c(F)ccc2c1` [Compound 71], for which, in experiment [2], the pKd is over 6.30.

`N#Cc1cc2c(N3CC4CCC(C3)N4)nc(OCC34CCCN3CCC4)nc2c(F)c1-c1cc(O)cc2ccccc12` [Compound 73]: the pKd in experiment [2] is over 6.30.

Consider `CC(C)N1CCC(Oc2nc(N3CC4CCC(C3)N4)c3cc(Cl)c(-c4cc(O)cc5ccccc45)c(F)c3n2)C1` (stereo not shown) [Compound 84], for which the pKd in experiment [2] is under 5.30.

Take `N#Cc1cc2c(N3CC4CCC(C3)N4)nc(OC[C@@]34CCCN3C[C@H](F)C4)nc2c(F)c1-c1c(O)cccc1F` [Compound 90]: the GI50 in experiment [1] is over 5000 nM.

Take `N#Cc1cc2c(N3CC4CCC(C3)N4)nc(OC[C@@]34CCCN3C[C@H](F)C4)nc2c(F)c1-c1ccc(F)c2sc(N)nc12` [Compound 112]: the pKd in experiment [2] is over 6.30.

Take `Cc1cc(N)nc(-c2c(SC(F)(F)F)cc3c(N4CCNC[C@@H]4C)nc(OC[C@@H]4CCCN4C)nc3c2F)c1C(F)(F)F` [Compound 136]: in experiment [2], the pKd is under 5.30.

In the case of `COc1nc(N2CC3CCC(C2)N3)c2cc(Cl)c(-c3ccc(F)c4sc(N)nc34)c(F)c2n1` [Compound 141], the pKd in experiment [2] was 5.30 to 6.30.

Take `CCc1c(F)ccc2cc(O)cc(-c3c(C#N)cc4c(N5CC6CCC(C5)N6)nc(OC[C@@]56CCCN5C[C@H](F)C6)nc4c3F)c12` [Compound 149]: the GI50 in experiment [1] is under 500 nM.

`CCc1c(F)ccc2cc(O)cc(-c3c(C#N)cc4c(N5CC6CCC(C5)N6)nc(OC[C@@]56CCCN5C[C@H](F)C6)nc4c3F)c12` [Compound 150]: the GI50 in experiment [1] was under 500 nM.

Turning to `CCOc1cc2c(N3CC4CCC(C3)N4)nc(OC[C@@]34CCCN3C[C@H](F)C4)nc2c(F)c1-c1cc(O)cc2cccc(CC)c12` [Compound 156], the GI50 in experiment [1] was under 500 nM.

Turning to `CCOc1cc2c(N3CC4CCC(C3)N4)nc(OC[C@@]34CCCN3C[C@H](F)C4)nc2c(F)c1-c1cc(O)cc2cccc(CC)c12` [Compound 157], the GI50 in experiment [1] lay in the range of 500 to 5000 nM.

Consider `CCOc1cc2c(N3CC4CCC(C3)N4)nc(OC[C@@]34CCCN3C[C@H](F)C4)nc2c(F)c1-c1cc(O)cc2ccc(F)c(CC)c12` [Compound 158], for which the GI50 in experiment [1] is under 500 nM.

As for `CCOc1cc2c(N3CC4CCC(C3)N4)nc(OC[C@@]34CCCN3C[C@H](F)C4)nc2c(F)c1-c1cc(O)cc2ccc(F)c(CC)c12` [Compound 159], in experiment [1], the GI50 was in the range of 500 to 5000 nM.

In the case of `C#Cc1c(F)ccc2cc(O)cc(-c3c(OCC)cc4c(N5CC6CCC(C5)N6)nc(OC[C@@]56CCCN5C[C@H](F)C6)nc4c3F)c12` [Compound 160], the GI50 in experiment [1] was under 500 nM.

On to `C#Cc1c(F)ccc2cc(O)cc(-c3c(OCC)cc4c(N5CC6CCC(C5)N6)nc(OC[C@@]56CCCN5C[C@H](F)C6)nc4c3F)c12` [Compound 161], for which the GI50 in experiment [1] was under 500 nM.

Turning to `C#Cc1c(F)ccc2cc(O)cc(-c3c(OC)cc4c(N5CC6CCC(C5)N6)nc(OC[C@@]56CCCN5C[C@H](F)C6)nc4c3F)c12` [Compound 162], the GI50 in experiment [1] was under 500 nM.

With `CCc1c(F)ccc2cc(O)cc(-c3c(OC)cc4c(N5CC6CCC(C5)N6)nc(OC[C@@]56CCCN5C[C@H](F)C6)nc4c3F)c12` [Compound 164], in experiment [1], the GI50 was under 500 nM.

As to `C#Cc1c(F)ccc2cc(O)cc(-c3cc(OC)c4c(N5CC6CCC(C5)N6)nc(OC[C@@]56CCCN5C[C@H](F)C6)nc4c3F)c12` [Compound 167], the GI50 in experiment [1] is under 500 nM.

In the case of `C#Cc1c(F)ccc2cc(O)cc(-c3cc(OC(C)C)c4c(N5CC6CCC(C5)N6)nc(OC[C@@]56CCCN5C[C@H](F)C6)nc4c3F)c12` [Compound 169], the GI50 in experiment [1] is under 500 nM.

Consider `C#Cc1c(F)ccc2cc(O)cc(-c3ccc4c(N5CC6CCC(C5)N6)nc(OC[C@@]56CCCN5C[C@H](F)C6)nc4c3F)c12` [Compound 170], for which the GI50 in experiment [1] is under 500 nM.
